Experiments:
[1] = Single dose oral pharmacokinetic study in mice; assay type: in vivo; settings: for half-life: read-out: t½ (converted)
Method in brief: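 Mice or rats dosed orally at 30 mg/kg in a suitable vehicle (10 ml/kg). Retro-orbital blood on K3 EDTA at defined time points under light ether anaesthesia; plasma analysed by LC-MS-MS.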

[2] = Cyto-toxicity assay (MTT) in MT2 cells without virus; assay type: cell-based; settings: human
Procedure: For cyto-toxicity assay the same amount of MT2 cells as in antiviral assay without virus was added to the 96 well plates. The cyto-toxicity was measured using MTT reagent in parallel with p24 estimation. The percent viability is calculated in comparison with vehicle control.

[3] = Single dose oral pharmacokinetic study in rat; assay type: in vivo; settings: plasma, Rat oral PK @30 mg/kg (Table 3); for half-life: read-out: t½ (converted)
Procedure: The test item was administered through oral route to animals (rat/mice) at 30 mg/kg dose in a suitable vehicle at 10 ml/kg dose volume. Blood samples (˜50 uL at each time point) were collected from retro-orbital plexus using K3 EDTA as anticoagulant in eppendorf tubes at defined time intervals under light ether anesthesia. The samples were centrifuged at 3500×g to separate plasma and stored at −80° C. until analysis.
Sample analysis: Test samples were analyzed using LC-MS-MS after developing fit-for-purpose method for each of test compound.

HIV-1 strain 92HT599 = assay: Antiviral activity: p24 estimation in MT2 cells infected with HIV-1 strain 92HT599; assay type: cell-based; settings: Human immunodeficiency virus 1, MT2 cells, HIV-1 92HT599, ~96 hours, p24; for inhibition at 0.1 µM: 100 nM, read-out: Antiviral activity % inhibition 100 nM; for inhibition at 1 µM: 1000 nM, read-out: Antiviral activity % inhibition 1000 nM
Method in brief: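 Infection of MT2 cells used 10 TCID50/30000 cells, with compound present at ≤1% DMSO for ~96 h. p24 in well aliquots was quantified by kit. Percent inhibition is relative to vehicle controls.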

[4] = mouse, plasma, Mice oral PK @30 mg/kg (Table 4)
[5] = mouse, plasma, Mice oral PK @30 mg/kg (Table 4), read-out: AUC 0-t
[6] = mouse, plasma, Oral PK @ 30 mg/ kg dose in mice (Table 6)

Row | SMILES | AUC(0-inf) [1, 4] [ng·h/mL] | Cmax [1, 4] [ng/mL] | AUC(0-t) [1, 5] [ng·h/mL] | half-life [1, 4] [h] | viability at 100 nM [2] [%] | viability at 1000 nM [2] [%] | AUC(0-inf) [3] [ng·h/mL] | AUC(0-t) [3] [ng·h/mL] | Cmax [3] [ng/mL] | half-life [3] [h] | inhibition at 0.1 µM (HIV-1 strain 92HT599) [%] | inhibition at 1 µM (HIV-1 strain 92HT599) [%] | Tlast ([1]; Oral PK @ 30 mg/ kg dose in mice (Table 6)) [h] | AUC(0-inf) [1, 6] [ng·h/mL] | Cmax [1, 6] [ng/mL] | Tmax [1, 6] [h] | AUC(0-t) ([1]; mouse, plasma, Oral PK @ 30 mg/ kg dose in mice (Table 6), read-out: AUCt) [ng·h/mL]
1 | C=C(C)[C@@H]1CC[C@]2(C(=O)O)CC[C@]3(C)[C@H](CC[C@@H]4[C@@]5(C)CC[C@H](OC(=O)[C@H]6[C@@H](CC(=O)O)C6(C)C)C(C)(C)[C@@H]5CC[C@]43C)[C@@H]12 [Compound 1, (1R,3aS,5aR,5bR,7aR,9S,11aR,11bR,13aR,13bR)-9-((1S,3R)-3-(carboxymethyl)-2,2-dimethylcyclopropanecarbonyloxy)-5a,5b,8,8,11a-pentamethyl-1-(prop-1-en-2-yl)icosahydro-1H-cyclopenta[a]chrysene-3a-carboxylic acid] | 36700 | 8790 | 35900 | 6.23 | 96 | 92 | 3230 | 3120 | 1220 | 1.53 | 95 | 100 | – | – | – | – | –
2 | CC(C)(CC(=O)O[C@H]1CC[C@]2(C)[C@H]3CC[C@@H]4[C@H]5[C@H](C6(C)CC6)CC[C@]5(C(=O)N[C@@H]5C[C@H](C(=O)N6CCCCC6)C5(C)C)CC[C@@]4(C)[C@]3(C)CC[C@H]2C1(C)C)C(=O)O [Example 4, 4-((1R,3aS,5aR,5bR,7aR,9S,11aR,11bR,13aR,13bR)-3a-((1R,3S)-2,2-dimethyl-3-(piperidine-1-carbonyl)cyclobutylcarbamoyl)-5a,5b,8,8,11a-pentamethyl-1-(1-methylcyclopropyl)icosahydro-1H-cyclopenta[a]chrysen-9-yloxy)-2,2-dimethyl-4-oxobutanoicacid] | 155000 | 9780 | 138000 | 14.5 | 82 | 86 | 22600 | 22300 | 5920 | 4.44 | 98 | 98 | – | – | – | – | –
3 | C=C(C)[C@@H]1CC[C@]2(C(=O)N[C@@H]3C[C@H](c4nnc(C)o4)C3(C)C)CC[C@]3(C)[C@H](CC[C@@H]4[C@@]5(C)CC[C@H](OC(=O)CC(C)(C)C(=O)O)C(C)(C)[C@@H]5CC[C@]43C)[C@@H]12 [Example 11, 4-((1R,3aS,5aR,5bR,7aR,9S,11aR,11bR,13aR,13bR)-3a-((1R,3S)-2,2-dimethyl-3-(5-methyl-1,3,4-oxadiazol-2-yl)cyclobutylcarbamoyl)-5a,5b,8,8,11a-pentamethyl-1-(prop-1-en-2-yl)icosahydro-1H-cyclopenta[a]chrysen-9-yloxy)-2,2-dimethyl-4-oxo butanoicacid] | 138000 | 11300 | 115000 | 3.66 | 96 | 98 | 8160 | 8050 | 1970 | 3.66 | 100 | 100 | – | – | – | – | –
4 | CC(C)(CC(=O)O[C@H]1CC[C@]2(C)[C@H]3CC[C@@H]4[C@H]5[C@H](C6(C)CC6)CC[C@]5(C(=O)N5CCC(C#N)(c6ccccc6)CC5)CC[C@@]4(C)[C@]3(C)CC[C@H]2C1(C)C)C(=O)O [Example 56, 4-((1R,3aS,5aR,5bR,7aR,9S,11aR,11bR,13aR,13bR)-3a-(4-cyano-4-phenylpiperidine-1-carbonyl)-5a,5b,8,8,11a-pentamethyl-1-(1-methylcyclopropyl)icosahydro-1H-cyclopenta[a]chrysen-9-yloxy)-2,2-dimethyl-4-oxobutanoic acid] | – | – | – | – | 83 | 80 | – | – | – | – | 76 | 99 | 24 | 185000 | 5900 | 7 | 95500

From patent US20150119373A1, “NOVEL BETULINIC ACID DERIVATIVES AS HIV INHIBITORS” (HETERO RESEARCH FOUNDATION, priority 2012, published 2015)
